We go through 51 compounds from PubChem BioAssay AID1996.

Converted amounts (≈) assume the structure as drawn.

For this data set the following is noted: buffer; pH 7.4; 200.0 µM.
What is called kinetic solubility is the concentration staying in solution when a stock, usually in DMSO, is diluted into the medium. Compound `Cc1c(C(=O)N(C)Cc2ccccc2)oc2c(Cl)cccc12` yielded a kinetic solubility of 8.4 µg/mL (≈ 26.8 µM).

Compound `C=C(C)CNC(=S)Nc1cccc(N)n1` had a solubility (kinetic) of more than 33.3 µg/mL.

For the compound `CC1CCCCC1NC(=O)c1cc(S(=O)(=O)N2CCOCC2)ccc1Cl` (stereo unspecified), the kinetic solubility turned out to be 16.7 µg/mL (≈ 41.7 µM).

As to `Cc1ccc2c(CN3CCC(C)CC3)cc(=O)oc2c1C`, the solubility (kinetic) came out at 3.9 µg/mL (≈ 13.7 µM).

Turning to `CCOC(=O)c1c(C)[nH]c(NC(=O)Nc2ccc(NC(C)=O)cc2)c1C`, the solubility (kinetic) amounted to 22.2 µg/mL (≈ 61.9 µM).

In turn, `COc1ccccc1C(=O)NC(=O)COC(=O)CNC(=O)c1ccccc1F` showed a kinetic solubility of more than 58.3 µg/mL.

For the compound `Cc1ccc(C2(c3noc(CN4CCOCC4)n3)CCCC2)cc1`, the solubility (kinetic) came to 41.3 µg/mL (≈ 126 µM).

On to `O=C(COC(=O)c1c(Cl)ccc(Cl)c1Cl)NCC1CCCO1` (stereo unspecified), for which the kinetic solubility is more than 55 µg/mL.

`CC(=O)c1sc(NCc2ccc(C)cc2)nc1C`: the solubility (kinetic) turned out to be 38.6 µg/mL (≈ 148 µM).

`CCc1cc2ccccc2nc1SCC(=O)NC1CCCC1`: the kinetic solubility came out at 0.3 µg/mL (≈ 0.954 µM).

In the case of `Cc1ccc(NC(=O)C2=C(C(=O)O)CCCC2)cc1Br`, the solubility (kinetic) was 33.3 µg/mL (≈ 98.5 µM).

As to `CC(C)NC(=O)C(=O)NCc1ccccn1`, the kinetic solubility was more than 33.2 µg/mL.

In turn, `Cc1ccccc1CC(=O)Nc1ccc2c(c1)CCC2` came in with a kinetic solubility of less than 0.6 µg/mL.

In turn, `CC(C)OC(=O)/C(C#N)=C/c1cn(C)c2ccccc12` came in with a kinetic solubility of 3.9 µg/mL (≈ 14.5 µM).

`CCCCOc1ccc(C(=O)Nc2ccc3c(c2)OCO3)cc1` showed a kinetic solubility of less than 0.7 µg/mL.

In the case of `Cc1cc(C)c2c(n1)sc1c(=O)n(CC(=O)c3ccccc3)cnc12`, the solubility (kinetic) was less than 0.2 µg/mL.

Regarding `CCCN(CC(=O)Nc1ccccc1OC)C(=O)c1cc2ccccc2o1`, the solubility (kinetic) stood at 25.5 µg/mL (≈ 69.6 µM).

Regarding `COc1ccc(NC(=O)c2ccc3ncsc3c2)cc1`, the solubility (kinetic) was found to be 1.3 µg/mL (≈ 4.57 µM).

In turn, `O=C(NNC(=O)c1ccc([N+](=O)[O-])cc1)c1ccc(NS(=O)(=O)c2cccs2)cc1` registered a kinetic solubility of more than 67 µg/mL.

`Cc1ccnc2c1ccc1ccccc12` yielded a kinetic solubility of less than 0.4 µg/mL.

The compound `COc1ccc(C(=O)N2CCN(CCc3ccccn3)CC2)cc1.Cl` displayed a solubility (kinetic) of more than 54.3 µg/mL.

`COc1ccc(C2(C)CC(C)(C)Nc3ccccc32)cc1` (stereo unspecified) registered a kinetic solubility of 5.7 µg/mL (≈ 20.3 µM).

In turn, `CC(=O)c1c(C)[nH]c(C(=O)COC(=O)c2c(-c3ccccc3)noc2C)c1C` returned a solubility (kinetic) of 2.1 µg/mL (≈ 5.52 µM).

The compound `NC(=O)C1CCN(C(=O)Cc2ccc(-c3ccccc3)cc2)CC1` registered a kinetic solubility of more than 48.4 µg/mL.

Compound `CC1(C(=O)O)CCC(C(=O)Nc2ccc(Cl)c(Cl)c2)C1(C)C` (stereo unspecified) showed a kinetic solubility of more than 51.6 µg/mL.

The compound `Cc1ccc2nc(CCc3nc4ccc(C)cc4[nH]3)[nH]c2c1.Cl` yielded a kinetic solubility of 8.9 µg/mL.

With `Cc1ccccc1NC(=S)Nc1ccc2[nH]c(=O)[nH]c2c1`, the solubility (kinetic) is 41.7 µg/mL (≈ 140 µM).

Take `CCOC(=O)C1=C(C)N(CC(C)C)C(=O)C1`: the kinetic solubility was more than 33.8 µg/mL.

Regarding `Nc1nnc(SCC(=O)NC2CCCCCC2)s1`, the kinetic solubility was more than 43 µg/mL.

For the compound `COc1ccc(CCNC2=CC(=O)CC(C)(C)C2)cc1`, the solubility (kinetic) is 40.4 µg/mL (≈ 148 µM).

`CCc1sc(C(=O)Nc2nc(-c3ccccn3)cs2)cc1C`: the solubility (kinetic) was 2.9 µg/mL (≈ 8.8 µM).

As for `COc1ccc2c(c1)[nH]c1c(=O)n(Cc3ccncc3)cnc12`, the solubility (kinetic) amounted to 5.1 µg/mL (≈ 16.6 µM).

In turn, `N#Cc1cc2c(nc1S(=O)(=O)Cc1ccccc1)CCCC2` had a solubility (kinetic) of 30.7 µg/mL (≈ 98.3 µM).

As to `Cc1c(-c2csc(N)n2)c2ccccc2n1C`, the kinetic solubility is 30.4 µg/mL (≈ 125 µM).

Turning to `O=C(CSCc1ccc(Br)cc1)NC1CC1`, the kinetic solubility was determined as 38.7 µg/mL (≈ 129 µM).

On to `CCS(=O)(=O)N1CCC(C(=O)Nc2cccc(F)c2)CC1`, for which the solubility (kinetic) is more than 47.2 µg/mL.

Regarding `Cc1cccc(C(=O)NCC(=O)OCC(=O)NC2CCCCC2)c1`, the solubility (kinetic) was more than 49.9 µg/mL.

`COc1cc(OC)cc(C(=O)N[C@H](C(=O)NC2CCCc3ccccc32)C(C)C)c1` (stereo partly specified) registered a kinetic solubility of 1.9 µg/mL (≈ 4.63 µM).

For `NS(=O)(=O)c1ccc(CNC(=O)c2ccccn2)cc1`, the solubility (kinetic) was more than 43.7 µg/mL.

Take `O=C(NC(O)C(=O)c1ccccc1)c1ccc(F)cc1` (stereo unspecified): the solubility (kinetic) worked out at 39.7 µg/mL (≈ 145 µM).

`CC(C)OC(=O)CSc1nc(Cc2ccccc2)nc2ccccc12`: the kinetic solubility was less than 0.4 µg/mL.

As to `O=C(Nc1ccccn1)c1ccc2ccccc2c1O`, the solubility (kinetic) worked out at 31.4 µg/mL (≈ 119 µM).

The compound `CC1CN(c2ccc([N+](=O)[O-])c(N3CCCCC3)c2)CCN1` (stereo unspecified) came in with a solubility (kinetic) of 42.4 µg/mL (≈ 139 µM).

Compound `O=C(Cc1ccc(Cl)cc1)NCc1nc(-c2ccccc2)no1` had a kinetic solubility of 1.9 µg/mL (≈ 5.8 µM). This solubility kinetic is about 22-fold lower than that of the compound before.

Regarding `COc1ccc(C(=O)O)cc1S(=O)(=O)Nc1ccc(N2CCCCC2)cc1`, the solubility (kinetic) came out at 54.7 µg/mL (≈ 140 µM).

Take `Cc1c(NC(=O)Nc2ccc3c(c2)OCO3)cccc1[N+](=O)[O-]`: the solubility (kinetic) was found to be 0.8 µg/mL (≈ 2.54 µM).

Take `Cc1ccc(C(=O)C(C)Sc2nnc(N)s2)cc1` (stereo unspecified): the solubility (kinetic) was more than 41.9 µg/mL.

`O=C(NC1CC1)c1ccc(N2CCCCC2)c([N+](=O)[O-])c1` had a solubility (kinetic) of more than 43.4 µg/mL.

In turn, `CN(C(=O)CCn1c(=S)oc2ccccc21)C1CCCCC1` yielded a solubility (kinetic) of more than 47.8 µg/mL.

In turn, `COCCNC(=O)c1oc2ccc3c(c2c1C)C(O)CC(C)(C)O3` (stereo unspecified) yielded a solubility (kinetic) of more than 50 µg/mL.

With `Oc1ccccc1-c1cncn1Cc1ccccc1`, the kinetic solubility is 11.4 µg/mL (≈ 45.5 µM).
